Results published in ChEMBL document CHEMBL4033705, “Screening for bioactive natural products from a 67-compound library of Glycyrrhiza inflata” (Bioorg Med Chem, 2017).
pIC50: −log10 of the molar value.

Key:
SW480 [1] = experiment: Growth inhibition of human SW480 cells at 10 uM after 24 hrs by MTS assay relative to control; assay type: functional; conditions: SW480, 24 h, read-out: GI
MCF7 [2] = experiment: Growth inhibition of human MCF7 cells at 10 uM after 24 hrs by MTS assay relative to control; assay type: functional; conditions: MCF7, 24 h, read-out: GI
Homo sapiens = species: Homo sapiens; experiment: Inhibition of LPS-induced NF-kappaB transcription (unknown origin) expressed in human SW480 cells at 10 uM by luciferase reporter gene assay; assay type: cell-based
RAW264.7 = experiment: Antiinflammatory activity in mouse RAW264.7 cells assessed as inhibition of LPS-induced NO production at 10 uM after 24 hrs by Griess reagent based assay relative to control; assay type: functional; conditions: RAW264.7, 24 h
[3] = Growth inhibition of human HEK293T cells at 10 uM after 24 hrs by MTS assay relative to control; assay type: cell-based, HEK-293T; conditions: HEK293T cells, read-out: GI
HepG2 = experiment: Growth inhibition of human HepG2 cells at 10 uM after 24 hrs by MTS assay relative to control; assay type: functional; conditions: HepG2, 24 h, read-out: GI
[4] = Growth inhibition of human LO2 cells at 10 uM after 24 hrs by MTS assay relative to control; assay type: cell-based, L02; conditions: LO2 cells, read-out: GI
[5] = target: T1, Tyrosine-protein phosphatase non-receptor type 1 (Homo sapiens) (UniProt P18031); experiment: Inhibition of recombinant human PTP1B using p-nitrophenyl phosphate as substrate at 10 uM after 30 mins relative to control
T1 sequence (whole entry): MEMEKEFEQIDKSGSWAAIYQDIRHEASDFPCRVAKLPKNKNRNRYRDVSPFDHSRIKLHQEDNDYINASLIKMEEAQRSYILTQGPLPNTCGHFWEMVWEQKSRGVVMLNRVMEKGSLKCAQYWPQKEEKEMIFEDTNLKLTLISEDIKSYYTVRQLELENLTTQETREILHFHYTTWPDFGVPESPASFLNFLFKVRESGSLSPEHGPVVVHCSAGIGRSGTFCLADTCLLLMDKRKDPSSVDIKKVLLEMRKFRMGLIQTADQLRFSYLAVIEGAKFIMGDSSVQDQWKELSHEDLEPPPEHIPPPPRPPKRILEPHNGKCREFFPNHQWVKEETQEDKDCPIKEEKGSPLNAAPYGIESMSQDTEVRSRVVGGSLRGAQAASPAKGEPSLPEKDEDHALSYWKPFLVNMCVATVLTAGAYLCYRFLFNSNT

[6] = target: Mushroom tyrosinase (Agaricus bisporus) (UniProt O42713+Q00024+C7FF04+C7FF05); experiment: Inhibition of mushroom tyrosinase at 10 uM using L-tyrosine as substrate incubated for 15 mins followed by substrate addition relative to control
[7] = target: T2, Tyrosine-protein phosphatase non-receptor type 1 (Homo sapiens, UniProt P18031); experiment: Inhibition of recombinant human PTP1B using p-nitrophenyl phosphate as substrate after 30 mins
T2 sequence (P18031 whole entry): T1 sequence (whole entry)

MCF7 [8] = experiment: Cytotoxicity against human MCF7 cells assessed as reduction in cell viability after 24 hrs by MTS assay; assay type: functional, cell-based; conditions: MCF7, 24 h
SW480 [9] = experiment: Cytotoxicity against human SW480 cells assessed as reduction in cell viability after 24 hrs by MTS assay; assay type: functional, cell-based; conditions: SW480, 24 h

Row | SMILES | inhibition of growth at 10 µM (SW480 [1]) [%] | inhibition of growth at 10 µM (MCF7 [2]) [%] | inhibition (Homo sapiens) [%] | inhibition at 10 µM (RAW264.7) [%] | inhibition at 24 h, 10 µM [3] [%] | inhibition of growth at 10 µM (HepG2) [%] | inhibition at 24 h, 10 µM [4] [%] | inhibition [5] [%] | inhibition [6] [%] | pIC50 [7] | pIC50 (MCF7 [8]) | pIC50 (SW480 [9])
1 | CC(C)=CCc1cc(/C=C/C(=O)c2ccc(O)cc2O)ccc1O [LICOAGROCHALCONE A] | 12 | 2 | 25 | 16 | 2 | 2 | 3 | 98 | 16 | 6.01 |  | 
2 | CC(C)=CCc1c(O)c(CC=C(C)C)c2oc(-c3ccc(O)cc3)cc(=O)c2c1O | 61 | 68 | 34 | 9 | 20 | 11 | 46 | 47 | 0 |  | 4.91 | 
3 | CC(C)=CCc1c(O)ccc2c1O[C@H](c1ccc3c(c1)C=CC(C)(C)O3)CC2=O | 72 | 75 | 20 | 24 | 25 | 14 | 2 | 50 | 15 |  | 4.89 | 5.01
4 | CC(C)=CCc1cc(-c2cc(=O)c3c(O)c(CC=C(C)C)c(O)cc3o2)ccc1O | 86 | 25 | 0 | 5 | 3 | 34 | 33 | 94 | 12 | 6.26 |  | 5.20
5 | CC(C)=CCc1cc(-c2coc3c(CC=C(C)C)c(O)cc(O)c3c2=O)cc(O)c1O | 55 | 3 | 14 | 0 |  | 0 |  | 92 | 2 | 5.35 |  | 
6 | CC(C)=CCc1cc(-c2coc3cc(O)cc(O)c3c2=O)cc(O)c1O [GLYCYRRHISOFLAVONE] | 18 | 15 | 8 | 3 |  | 0 |  | 52 | 8 |  |  | 
7 | COc1ccc(-c2coc3c(O)c(O)c(CC=C(C)C)cc3c2=O)cc1 | 51 | 4 | 21 | 17 |  | 48 |  | 74 | 7 |  |  | 
8 | CC(C)=CCc1c(O)cc2occ(-c3ccc4c(c3)C=CC(C)(C)O4)c(=O)c2c1O [ISOCHANDALON] | 58 to 81 | 73 | 3 | 0 |  | 7 |  | 94 | 3 |  |  | 
9 | O=c1cc(-c2ccc(O)cc2)oc2cc(O)ccc12 | 22 | 11 | 0 | 5 |  | 18 |  | 55 | 11 |  |  | 
10 | O=C1C[C@@H](c2cc(O)cc(O)c2)Oc2cc(O)ccc21 | 4 | 13 | 1 | 15 |  | 0 |  | 2 | 12 |  |  | 
11 | CC(C)=CCc1cc([C@@H]2CC(=O)c3c(cc(O)c(CC=C(C)C)c3O)O2)ccc1O [MACARANGAFLAVANONE B] | 87 | 36 | 24 | 5 |  | 10 |  | 90 | 5 | 5.99 |  | 
12 | O=C(/C=C/c1ccc(O)cc1)c1ccc(O)cc1O [ISOLIQUIRITIGENIN] | 16 | 0 | 6 | 14 |  | 0 |  | 48 | 12 |  |  | 
13 | COc1c(/C=C/C(=O)c2ccc(O)cc2)ccc(O)c1CC=C(C)C | 25 | 26 | 9 | 1 |  | 22 |  | 20 | 5 |  |  | 
14 | CC1(C)[C@@H](OC=O)CC[C@]2(C)[C@H]3C(=O)C=C4[C@@H]5C[C@@](C)(C(=O)O)CC[C@]5(C)CC[C@@]4(C)[C@]3(C)CC[C@@H]12 | 3 | 17 | 0 | 2 |  | 13 |  | 3 | 0 |  |  | 
15 | CC(C)=CCc1c(O)ccc(-c2coc3cc(O)cc(O)c3c2=O)c1O | 26 | 18 | 5 | 20 |  | 5 |  | 7 | 5 |  |  | 
16 | CC(C)=CCc1c(O)ccc(-c2coc3cc(O)c(CC=C(C)C)c(O)c3c2=O)c1O | 46 | 4 | 15 | 0 |  | 0 |  | 78 | 2 |  |  | 
17 | CC1(C)C=Cc2c(O)ccc([C@@H]3COc4cc(O)cc(O)c4C3=O)c2O1 | 8 | 13 | 24 | 2 |  | 6 |  | 1 | 9 |  |  | 
18 | CC1(C)C=Cc2c(cc3occ(-c4ccc(O)cc4)c(=O)c3c2O)O1 [ALPINUMISOFLAVONE] | 13 | 3 | 41 | 19 | 15 | 40 | 5 | 79 | 2 |  |  | 
19 | CC(C)=CCc1c(O)c(CC=C(C)C)c2occ(-c3ccc(O)cc3)c(=O)c2c1O | 81 | 73 | 26 | 22 | 49 | 30 | 12 | 51 | 7 |  | 5.07 | 5.09
20 | O=C1C[C@@H](c2ccc(O)cc2)Oc2cc(O)cc(O)c21 [NARINGENIN] | 28 | 21 | 22 | 6 |  | 28 |  | 43 | 10 |  |  | 
21 | CC(C)=CCc1c(O)ccc([C@H]2COc3cc(O)c(CC=C(C)C)c(O)c3C2=O)c1O | 2 | 44 | 37 | 14 | 4 | 25 | 0 | 98 | 7 | 6.08 |  | 
22 | CC(C)=CCc1c(O)ccc(C(=O)/C=C/c2ccc(O)c(O)c2)c1O | 11 | 12 | 14 | 11 |  | 1 |  | 16 | 14 |  |  | 
23 | CC(C)=CCc1c(O)ccc(-c2coc3cc(O)ccc3c2=O)c1O | 35 | 36 | 3 | 25 |  | 11 |  | 56 | 6 |  |  | 
24 | CC1(C)C=Cc2c(ccc(-c3coc4cc(O)ccc4c3=O)c2O)O1 [GLABRONE] | 50 | 12 | 15 | 5 |  | 16 |  | 69 | 3 |  |  | 
